Results as given in patent publication US7560482B2, “Inhibitors of plasmepsins” (The Johns Hopkins University, priority 2001, dated 2009).
Where two headings read alike, the source gives them in different places.

Legend:
[1] = target: T1, plasmepsin II from Plasmodium falciparum (Plm II) (Plasmodium falciparum, UniProt P46925); assay: Plasmepsin II inhibition assay, hydrolysis of chromogenic substrate; type: biochemical; settings: for discrimination factor / Cathepsin D selectivity: Plasmepsin II versus Cathepsin D, fold; for Discrimination Factor: Fold Selectivity for Plasmepsin II over Cathepsin D: ratio of the Ki for Cathepsin D to the Ki for Plasmepsin II
T1 construct: made in house; host or cells: Escherichia coli
T1 sequence (P46925 125-453): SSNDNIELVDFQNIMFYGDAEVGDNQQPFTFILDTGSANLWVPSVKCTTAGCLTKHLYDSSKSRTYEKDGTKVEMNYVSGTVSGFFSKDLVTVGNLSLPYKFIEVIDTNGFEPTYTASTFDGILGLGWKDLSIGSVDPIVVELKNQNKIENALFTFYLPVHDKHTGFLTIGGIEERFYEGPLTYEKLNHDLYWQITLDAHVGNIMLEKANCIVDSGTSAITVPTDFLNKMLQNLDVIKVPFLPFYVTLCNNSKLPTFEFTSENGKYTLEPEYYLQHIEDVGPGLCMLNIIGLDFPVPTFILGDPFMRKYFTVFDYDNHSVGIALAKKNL
Description: FIG. 7A-C. Inhibition of Plasmepsin II from Plasmodium falciparum by KNI-10033, KNI-10030 and KNI-10006 at 20° C. in 10 mM sodium citrate, 100 mM NaCl, 2% DMSO, pH 4.0. The inhibition constants are 3 nM, 11 nM and 0.5 rLM respectively.
(§1) The specific activity of plasmepsin II from Plasmodium falciparum (Plm II) cloned in and purified from Escherchia coli and commercially available human Cathepsin D were measured by following the hydrolysis of the chromogenic substrate Ala-Leu-Glu-Arg-Thr-nPhe-Phe-Ser-Phe-Pro-Thr-OH (California Peptide Research Inc., Napa, Calif.). The decrease in absorbance upon hydrolysis is monitored at 300 nm. Typical Plasmepsin II preparations hydrolyze chromogenic substrate at 4-5 s^−1 at 37° C. The inhibition assays were performed at 25° C. in 10 mM sodium formate, 2% DMSO, pH 4.0. These pH conditions mimic the conditions in the food vacuole of the parasite. […] Inhibition constants (Ki) for the inhibitors are obtained at the desired temperature and solvent conditions by measuring the rate of substrate hydrolysis at increasing amounts of inhibitors. Exemplary results from three compounds (KNI-10033, KNI-10030 and KNI-10006) are shown in FIG. 7A-C, and the results obtained with all KNI compounds tested are given in Table 1.

human Cathepsin D = target: T2, human Cathepsin D (Homo sapiens, UniProt P07339); assay: Cathepsin D inhibition assay, hydrolysis of chromogenic substrate; type: biochemical
T2 construct: purchased
T2 sequence (P07339 65-412): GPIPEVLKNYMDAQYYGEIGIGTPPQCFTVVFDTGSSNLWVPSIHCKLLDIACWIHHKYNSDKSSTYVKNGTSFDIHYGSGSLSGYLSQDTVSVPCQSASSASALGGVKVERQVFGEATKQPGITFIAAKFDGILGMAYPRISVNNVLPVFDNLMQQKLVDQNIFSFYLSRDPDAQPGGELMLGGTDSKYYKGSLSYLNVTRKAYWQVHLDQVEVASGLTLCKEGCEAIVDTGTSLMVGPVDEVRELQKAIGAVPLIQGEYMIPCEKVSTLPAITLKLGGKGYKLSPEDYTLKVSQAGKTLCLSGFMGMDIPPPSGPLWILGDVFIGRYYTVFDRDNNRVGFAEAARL
Description: as §1

[2] = test system: chloroquine-sensitive Plasmodium falciparum (NF54); assay: malaria-infected human red blood cell assay, [3H]hypoxanthine incorporation; type: cell-based; settings: P. falciparum NF54, 48 h + 20 h incubation; read-out: IC50, killing of malaria parasite in infected red blood cell assay
Description: The ability of some KNI compounds to kill the malaria parasite was evaluated by measuring the IC50 in a malaria-infected human red blood cell assay. Activity was determined by measuring the incorporation of [^3H]hypoxanthine. Briefly, chloroquine-sensitive Plasmodium falciparum (NF54) were maintained in a 2.4% suspension of type O^+ human erythrocytes in RPMI 1640, supplemented with 25 mM HEPES, 27 mM NaHCO3, and 10% heat-inactivated human type O^+ serum, under 3% O2, 4% CO2, and 93% N2. 20 mM stock solutions of KNI-764 and KNI-727 and KNI-840 were prepared in DMSODMSO solutions were diluted 500 fold in medium, serially diluted in 0.2% DMSO in medium, then 100 μl aliquots were pipetted into microtiter plate wells. Provisional EC50 values were obtained in a survey of ten 5-fold dilutions yielding final concentrations (in quadruplicate) of 0.00001-20 μM. Plates included 8 wells of no drug controls (4 with and 4 without DMSO) and 4 wells in uninfected erythrocytes. […] The filters were washed four times with 3 ml water per sample spot, dried under a heat lamp, and counted in scintillation cocktail. Decays per minute values were downloaded and analyzed in order to yield the mean and standard deviation at each drug concentration. […]

[3] = 25° C., 10 mM sodium formate, 2% DMSO, pH 4.0, fit to competitive inhibition, read-out: Ki Plm II
[4] = Table 2, read-out: Ki Plasmepsin II
[5] = 25° C., 10 mM sodium formate, 2% DMSO, pH 4.0, fit to competitive inhibition, read-out: Ki CatD
[6] = Table 2, read-out: Ki Cathepsin D

Structure (SMILES) | inhibition constants against Plasmepsin II, in words [1] | Ki [1, 3] | discrimination factor / Cathepsin D selectivity [1] | Ki [1, 4] | Discrimination Factor: Fold Selectivity for Plasmepsin II over Cathepsin D [1] | Ki ([1]; read-out: Ki (Plasmepsin II), unit inferred) | Ki (human Cathepsin D; [5]) | Ki (human Cathepsin D; [6]) | IC50 [2] | Ki ([1]; read-out: Ki against Plasmepsin II)
Cc1ccccc1CNC(=O)[C@H]1N(C(=O)[C@@H](O)[C@H](Cc2ccccc2)NC(=O)COc2c(C)cccc2C)CSC1(C)C [KNI-840] | nanomolar and subnanomolar range | 0.02 ± 0.01 µM | 4 | 0.02 µM | 4 | ~0.02 µM | 0.08 ± 0.09 µM | 0.08 µM | 10 µM | –
Cc1ccccc1CNC(=O)[C@H]1N(C(=O)[C@@H](O)[C@H](Cc2ccccc2)NC(=O)c2cccc(O)c2C)CSC1(C)C [KNI-764] | nanomolar and subnanomolar range | 0.03 ± 0.009 µM | – | 0.03 µM | ~7 | – | 0.201 ± 0.02 µM | 0.201 µM | 10 µM | –
CSCC(NC(=O)COc1cccc2cnccc12)C(=O)NC(Cc1ccccc1)C(O)C(=O)N1CSC(C)(C)C1C(=O)NC(C)(C)C (stereo not shown) [KNI-227] | nanomolar and subnanomolar range | 0.036 ± 0.01 µM | 50 | 0.036 µM | ~49 | – | 1.77 ± 0.23 µM | 1.77 µM | – | 0.03 µM
CC(C)[C@H](NC(=O)c1cccc2ccccc12)C(=O)N[C@@H](Cc1ccccc1)[C@H](O)C(=O)N1CSC(C)(C)[C@H]1C(=O)NC(C)(C)C [KNI-10027] | – | 1.07 ± 0.09 µM | – | – | – | – | 1.03 ± 0.2 µM | – | – | –
CC(C)(C)NC(=O)[C@H]1N(C(=O)[C@@H](O)[C@H](Cc2ccccc2)NC(=O)[C@H](Cc2ccccc2)NC(=O)COc2cccc3cnccc23)CSC1(C)C [KNI-10051] | – | 0.186 ± 0.014 µM | – | – | – | – | 6.51 ± 1.22 µM | – | – | –
CC(C)[C@H](NC(=O)c1cc2ccccc2o1)C(=O)N[C@@H](Cc1ccccc1)[C@H](O)C(=O)N1CSC(C)(C)[C@H]1C(=O)NC(C)(C)C [KNI-10009] | – | 2.18 ± 0.25 µM | – | – | – | – | 0.515 ± 0.047 µM | – | – | –
Cc1cccc(C)c1OCC(=O)N[C@@H](Cc1ccccc1)[C@H](O)C(=O)N1CSC(C)(C)[C@H]1C(=O)NCc1cccc(O)c1 [KNI-10048] | – | 0.099 ± 0.014 µM | – | – | – | – | 0.771 ± 0.097 µM | – | – | –
CC(C)[C@H](NC(=O)c1ccc2ccccc2n1)C(=O)N[C@@H](Cc1ccccc1)[C@H](O)C(=O)N1CSC(C)(C)[C@H]1C(=O)NC(C)(C)C [KNI-10004] | – | 0.522 ± 0.05 µM | – | – | – | – | 0.29 ± 0.09 µM | – | – | –
